pKi: −log10 of the molar value.
Legend:
Carbonic anhydrase 9 = Carbonic anhydrase 9 (Homo sapiens, UniProt Q16790)
Carbonic anhydrase 2 = Carbonic anhydrase 2 (Homo sapiens, UniProt P00918)
Carbonic anhydrase 1 = Carbonic anhydrase 1 (Homo sapiens, UniProt P00915)
Sequence of Carbonic anhydrase 1 (P00915 whole entry): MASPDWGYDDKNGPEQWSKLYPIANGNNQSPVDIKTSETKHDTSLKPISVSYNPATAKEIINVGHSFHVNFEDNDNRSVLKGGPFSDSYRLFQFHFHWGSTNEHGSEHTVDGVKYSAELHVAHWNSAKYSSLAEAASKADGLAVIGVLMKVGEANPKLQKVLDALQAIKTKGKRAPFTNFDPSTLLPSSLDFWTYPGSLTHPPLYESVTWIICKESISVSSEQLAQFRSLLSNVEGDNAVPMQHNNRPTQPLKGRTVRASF

Structure (SMILES)	pKi (Carbonic anhydrase 9)	pKi (Carbonic anhydrase 2)	pKi (Carbonic anhydrase 1)
CC1(C)OB(c2ccc(NC(=S)Nc3cccc(S(N)(=O)=O)c3)cc2)OC1(C)C	7.09	8.26	7.15
CC1(C)OB(c2ccc(NC(=S)Nc3ccc(S(N)(=O)=O)cc3I)cc2)OC1(C)C	8.03	8.01	7.04
CC1(C)OB(c2ccc(N/C(S)=N/c3ccc(S(=O)(=O)Nc4ccc(S(N)(=O)=O)cc4)cc3)cc2)OC1(C)C	7.08	8.20	7.31
CC1(C)OB(c2ccc(NS(N)(=O)=O)cc2)OC1(C)C	7.09		7.04
CC1(C)OB(c2ccc(NC(=S)Nc3ccc(S(=O)(=O)Nc4nnc(S(N)(=O)=O)s4)cc3)cc2)OC1(C)C	8.14	8.29	7.47
CC1(C)OB(c2ccc(NC(=S)Nc3ccc(S(N)(=O)=O)cc3Br)cc2)OC1(C)C	7.05	8.29	7.14
CC1(C)OB(c2ccc(C(=O)NCCc3ccc(S(N)(=O)=O)cc3)cc2)OC1(C)C	7.38	8.29	7.15
CC1(C)OB(c2ccc(N/C(S)=N/c3ccc(S(N)(=O)=O)cc3Cl)cc2)OC1(C)C	7.09	8.30	7.15
CC1(C)OB(c2ccc(C(=O)Nc3ccc(S(N)(=O)=O)cc3)cc2)OC1(C)C	7.28	8.28	7.15
CC1(C)OB(c2ccc(OS(N)(=O)=O)cc2)OC1(C)C	7.10	7.49	7.03
CC1(C)OB(c2ccc(NC(=S)Nc3ccc(S(N)(=O)=O)cc3)cc2)OC1(C)C	7.10	8.29	7.16
CC1(C)OB(c2ccc(C(=O)NCc3ccc(S(N)(=O)=O)cc3)cc2)OC1(C)C		8.27	7.16
CC1(C)OB(c2ccc(N/C(S)=N/c3ccc(S(N)(=O)=O)cc3F)cc2)OC1(C)C	8.00	8.29	7.11
CC1(C)OB(c2ccc(C(=O)Nc3nnc(S(N)(=O)=O)s3)cc2)OC1(C)C	8.12	8.51	7.44
